Results taken from patent US10005817B2, “Peptide pharmaceuticals” (EUMEDERIS PHARMACEUTICALS, INC., priority 2012, dated 2018).
Non-standard residues stand in square brackets, D forms with d. Residues, ends and D or L forms follow the SMILES beside them. *: point of attachment. βGlcA(1-O-hexadecyl) = CCCCCCCCCCCCCCCCO[C@@H]1O[C@H](C(=O)*)[C@@H](O)[C@H](O)[C@H]1O; βDGlcA(1-OC18H37) = CCCCCCCCCCCCCCCCCCO[C@@H]1O[C@H](C(=O)*)[C@@H](O)[C@H](O)[C@H]1O; GlcA(β-D,1-O-dodecyl) = CCCCCCCCCCCCO[C@@H]1O[C@H](C(=O)*)[C@@H](O)[C@H](O)[C@H]1O; GlcA(β1-O-octyl) = CCCCCCCCO[C@@H]1O[C@H](C(=O)*)[C@@H](O)[C@H](O)[C@H]1O; βGlcA(1-OMe) = CO[C@@H]1O[C@H](C(=O)*)[C@@H](O)[C@H](O)[C@H]1O; Dmt = Cc1cc(O)cc(C)c1C[C@H](N)C(=O)O; hArg = N=C(N)NCCCC[C@H](N)C(=O)O; Tic = O=C(O)[C@@H]1Cc2ccccc2CN1; Nle = CCCC[C@H](N)C(=O)O; Ac5c = NC1(C(=O)O)CCCC1; Aib = CC(C)(N)C(=O)O; NHBn = c1ccc(CN*)cc1

How the values were obtained:
[1] = in water; cited from earlier work
[2] = target: T1, PTH receptor (PTHR1) (Homo sapiens, UniProt Q03431); assay: PTH1 cellular assay, cAMP, agonist mode (SaOS2 cells, Cerep); type: cell-based; conditions: for Emax: SAOS-2, read-out: Maximal response (% PTHrP)
T1 construct: Cerep SA
T1 sequence (Q03431 27-593): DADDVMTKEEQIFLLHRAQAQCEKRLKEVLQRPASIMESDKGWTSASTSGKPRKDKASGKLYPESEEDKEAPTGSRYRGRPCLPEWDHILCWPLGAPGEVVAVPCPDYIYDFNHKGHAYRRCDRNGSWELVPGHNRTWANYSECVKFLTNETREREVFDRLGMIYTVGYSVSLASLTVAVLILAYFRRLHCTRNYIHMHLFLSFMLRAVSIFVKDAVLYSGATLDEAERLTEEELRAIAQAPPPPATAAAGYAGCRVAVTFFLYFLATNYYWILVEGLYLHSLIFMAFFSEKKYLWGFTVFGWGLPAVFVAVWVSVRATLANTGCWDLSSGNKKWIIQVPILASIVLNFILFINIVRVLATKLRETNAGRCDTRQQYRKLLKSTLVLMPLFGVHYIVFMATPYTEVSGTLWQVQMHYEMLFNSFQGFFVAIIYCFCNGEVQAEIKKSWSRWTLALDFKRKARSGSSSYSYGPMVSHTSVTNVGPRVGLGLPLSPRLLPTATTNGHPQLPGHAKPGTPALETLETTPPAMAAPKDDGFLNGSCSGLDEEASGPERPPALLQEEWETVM
Description: Compounds were weighed precisely in an amount of approximately 1 mg and assayed in standard cellular assays (cerep SA). The readout is the amount of cAMP generated in the cells treated with the test compounds, in either agonist or antagonist mode.
Compounds were dissolved in water and diluted in assay buffer containing 1% bovine serum albumin.

[3] = target: T2, mu opioid receptor (Homo sapiens, UniProt P35372); assay: mu opioid receptor cellular assay (MOP), agonist mode, cAMP readout (Cerep); type: cell-based
T2 construct: Cerep
T2 sequence (P35372 whole entry): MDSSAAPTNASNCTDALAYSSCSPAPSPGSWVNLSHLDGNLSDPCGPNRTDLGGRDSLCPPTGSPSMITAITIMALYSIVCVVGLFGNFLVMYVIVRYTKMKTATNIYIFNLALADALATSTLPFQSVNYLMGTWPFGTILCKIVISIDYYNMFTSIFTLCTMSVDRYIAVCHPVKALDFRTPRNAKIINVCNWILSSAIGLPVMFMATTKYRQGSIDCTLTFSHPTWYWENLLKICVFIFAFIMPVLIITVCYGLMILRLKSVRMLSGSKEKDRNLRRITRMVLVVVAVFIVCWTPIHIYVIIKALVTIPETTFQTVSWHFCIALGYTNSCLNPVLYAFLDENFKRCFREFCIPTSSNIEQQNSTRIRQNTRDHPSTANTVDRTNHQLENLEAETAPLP
Description: (§1) Compounds were weighed precisely in an amount of approximately 2 mg and assayed in standard cellular assays by the contract research organization Cerep, Inc. (Pullman, Wash.) as executed at their subsidiary, Cerep SA (Le Bois l'Eveque, France). The readout is the amount of cAMP generated in the cells treated with the test compounds, in either agonist or antagonist mode. The assays used were the mu opioid receptor cellular assay (MOP in agonist and antagonist mode), the delta2 opioid receptor cellular assay (DOP in agonist and antagonist mode) and the kappa opioid receptor cellular assay (KOP in agonist and antagonist mode). The assays used are described in Wang, J. B., et al. (1994) FEBS Lett 338: 217-222, Law, P. Y. and Loh, H. H. (1993) Mol Pharmacol 43: 684-693, and Avidor-Reiss, T., et al. (1995) FEBS Lett 361: 70-74. The stimulant for the cells in the DOR antagonist assay was 3×10E-8M DPDPE, a well-accepted DOR literature standard.

[4] = target: T3, delta2 opioid receptor (Mus musculus, UniProt P32300); assay: delta2 opioid receptor cellular assay (DOP), antagonist mode vs DPDPE, cAMP readout; type: cell-based
T3 construct: Cerep
T3 sequence (P32300 whole entry): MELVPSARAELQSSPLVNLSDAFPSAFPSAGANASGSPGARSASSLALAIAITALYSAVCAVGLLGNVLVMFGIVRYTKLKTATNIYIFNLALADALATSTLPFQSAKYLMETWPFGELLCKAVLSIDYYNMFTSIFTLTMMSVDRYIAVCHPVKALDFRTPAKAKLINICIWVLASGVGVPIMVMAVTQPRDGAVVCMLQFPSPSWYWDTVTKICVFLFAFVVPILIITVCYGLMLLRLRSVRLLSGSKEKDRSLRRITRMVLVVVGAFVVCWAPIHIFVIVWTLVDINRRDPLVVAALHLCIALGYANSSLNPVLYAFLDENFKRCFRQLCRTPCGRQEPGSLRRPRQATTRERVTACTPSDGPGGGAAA
Description: as §1

Compound | CMC [1] | Characterization (MOP) [3] | Characterization (DOP) [4] | EC50 [3] | also measured
CCCCCCCCCCCCCCO[C@@H]1O[C@H](CO)[C@@H](O[C@@H]2O[C@@H](CO)[C@H](O)[C@@H](O)[C@@H]2O)[C@H](O)[C@H]1O (stereo in doubt) [Tetradecyl maltoside] | 0.01 mM |  |  |  | 
CCCCCCCCCCCCCO[C@@H]1O[C@H](CO)[C@@H](OC2OC(CO)C(O)C(O)C2O)[C@H](O)[C@H]1O (stereo in doubt) [Tridecyl maltoside] | 0.03 mM |  |  |  | 
CCCCCCCCCCO[C@@H]1O[C@H](CO)[C@@H](O[C@H]2O[C@H](CO)[C@@H](O)[C@H](O)[C@H]2O)[C@H](O)[C@H]1O [Decyl maltoside] | 1.8 mM |  |  |  | 
CCCCCCCCCCCCO[C@@H]1O[C@H](CO)[C@@H](O[C@H]2O[C@H](CO)[C@@H](O)[C@H](O)[C@H]2O)[C@H](O)[C@H]1O [Dodecyl-β-D-maltoside] | 0.17 mM |  |  |  | 
CCCCCCCCCCCCCCCCO[C@@H]1O[C@H](C(=O)NCCCC[C@H](NC(=O)C(C)(C)NC(=O)[C@H](CCC(N)=O)NC(=O)[C@@H](NC(=O)[C@H](Cc2c[nH]c3ccccc23)NC(=O)[C@H](CCCNC(=N)N)NC(=O)[C@H](C)NC(=O)[C@H](CCCCNC(=N)N)NC(=O)[C@H](CCC(N)=O)NC(=O)[C@H](Cc2c[nH]cn2)NC(=O)[C@H](CCCC)NC(=O)[C@H](CC(C)C)NC(=O)[C@H](CCC(N)=O)NC(=O)[C@@H](NC(=O)[C@H](CCC(=O)O)NC(=O)C(C)(C)NC(=O)[C@@H](NC(=O)C2(N)CCCC2)C(C)C)[C@@H](C)CC)[C@@H](C)CC)C(=O)NC(C)(C)C(N)=O)[C@@H](O)[C@H](O)[C@H]1O [EU-287, Ac5c1-VaL2-Aib3-Glu4-Ile5-Gln6-Leu7-Nle8-His9-Gln10-hArg11-Ala12-Arg13-TrP14-Ile15-Gln16-Aib17-Lys(N-epsilon-1′-hexadecylbeta-D-glucuronyL)18-Aib19-NH2] (H-[Ac5c]V[Aib]EIQL[Nle]HQ[hArg]ARWIQ[Aib]K(βGlcA(1-O-hexadecyl))[Aib]-NH2) |  |  |  |  | Characterization [2]: agonist; EC50 [2]: < 1 nM; Emax [2]: 128%
CCCCCCCCCCCCCCCCCCO[C@@H]1O[C@H](C(=O)NCCCC[C@H](NC(=O)C(C)(C)NC(=O)[C@H](CCC(N)=O)NC(=O)[C@@H](NC(=O)[C@H](Cc2c[nH]c3ccccc23)NC(=O)[C@H](CCCNC(=N)N)NC(=O)[C@H](C)NC(=O)[C@H](CCCCNC(=N)N)NC(=O)[C@H](CCC(N)=O)NC(=O)[C@H](Cc2c[nH]cn2)NC(=O)[C@H](CCCC)NC(=O)[C@H](CC(C)C)NC(=O)[C@H](CCC(N)=O)NC(=O)[C@@H](NC(=O)[C@H](CCC(=O)O)NC(=O)C(C)(C)NC(=O)[C@@H](NC(=O)C2(N)CCCC2)C(C)C)[C@@H](C)CC)[C@@H](C)CC)C(=O)NC(C)(C)C(N)=O)[C@@H](O)[C@H](O)[C@H]1O [EU-288, Ac5c1-VaL2-Aib3-Glu4-Ile5-Gln6-Leu7-Nle8-His9-Gln10-hArg11-Ala12-Arg13-Trp14-Ile15-Gln16-Aib17-Lys(N-epsilon-1′-octadecylbeta-D-glucuronyl)18-Aib19-NH2] (H-[Ac5c]V[Aib]EIQL[Nle]HQ[hArg]ARWIQ[Aib]K(βDGlcA(1-OC18H37))[Aib]-NH2) |  |  |  |  | Characterization [2]: agonist; EC50 [2]: < 1 nM; Emax [2]: 130%
CCCCCCCCCCCCO[C@@H]1O[C@H](C(=O)NCCCC[C@H](NC(=O)[C@H](Cc2ccccc2)NC(=O)[C@@H]2Cc3ccccc3CN2C(=O)[C@@H](N)Cc2c(C)cc(O)cc2C)C(N)=O)[C@@H](O)[C@H](O)[C@H]1O [EU-A179, Dmt-Tic-Phe-Lys(C12-glucuronyl)-NH2] (H-[Dmt][Tic]FK(GlcA(β-D,1-O-dodecyl))-NH2) |  | Pure MOP Ag; | pure DOP antag |  | 
CCCCCCCCO[C@@H]1O[C@H](C(=O)NCCCC[C@H](NC(=O)[C@H](Cc2ccccc2)NC(=O)[C@@H]2Cc3ccccc3CN2C(=O)[C@@H](N)Cc2c(C)cc(O)cc2C)C(N)=O)[C@@H](O)[C@H](O)[C@H]1O [EU-A180, Dmt-Tic-Phe-Lys(C8-glucuronyl)-NH2] (H-[Dmt][Tic]FK(GlcA(β1-O-octyl))-NH2) |  | Pure MOP Ag; | pure DOP antag | 36 nM | 
CO[C@@H]1O[C@H](C(=O)NCCCC[C@H](NC(=O)[C@H](Cc2ccccc2)NC(=O)[C@H](Cc2ccccc2)NC(=O)[C@@H]2Cc3ccccc3CN2C(=O)[C@@H](N)Cc2c(C)cc(O)cc2C)C(N)=O)[C@@H](O)[C@H](O)[C@H]1O [EU-A189, 2′,6′-dimethyl-L-tyrosyl-L-1,2,3,4-tetrahydroisoquinoline-3-carbonyl-L-phenylalanyl-L-phenylalanyl-Nε-(1′-methyl β-D-glucuronyl)-L-lysyl-amide] |  | Pure MOP Ag; | pure DOP antag | 41 nM | 
CCCCCCCCCCCCO[C@@H]1O[C@H](C(=O)NCCCC[C@H](NC(=O)[C@H](Cc2ccccc2)NC(=O)[C@H](Cc2ccccc2)NC(=O)[C@@H]2Cc3ccccc3CN2C(=O)[C@@H](N)Cc2c(C)cc(O)cc2C)C(N)=O)[C@@H](O)[C@H](O)[C@H]1O [EU-A190, Dmt-Tic-Phe-Phe-Lys(C12-glucuronyl)-NH2] |  | Pure MOP Ag; | pure DOP antag |  | 
CO[C@@H]1O[C@H](C(=O)NCCCC[C@H](NC(=O)[C@H](Cc2ccccc2)NC(=O)[C@@H]2Cc3ccccc3CN2C(=O)[C@@H](N)Cc2c(C)cc(O)cc2C)C(=O)NC(C)(C)C(N)=O)[C@@H](O)[C@H](O)[C@H]1O [EU-A600, Dmt-Tic-Phe-Lys(C1-glucuronyl)-Aib-NH2] (H-[Dmt][Tic]FK(βGlcA(1-OMe))[Aib]-NH2; N-terminus assumed) |  | Pure MOP Ag; | pure DOP antag | 110 nM | 
CO[C@@H]1O[C@H](C(=O)NCCCC[C@@H](NC(=O)[C@H](Cc2ccccc2)NC(=O)[C@@H]2Cc3ccccc3CN2C(=O)[C@@H](N)Cc2c(C)cc(O)cc2C)C(N)=O)[C@@H](O)[C@H](O)[C@H]1O [EU-A615, Dmt-Tic-Phe-D-Lys(C1-glucuronyl)-Aib-NH2] (H-[Dmt][Tic]F[dK](βGlcA(1-OMe))-NH2) |  | Pure MOP Ag; | pure DOP antag |  | 
CO[C@@H]1O[C@H](C(=O)NCCCC[C@H](NC(=O)[C@H](Cc2ccccc2)NC(=O)[C@@H]2Cc3ccccc3CN2C(=O)[C@@H](N)Cc2c(C)cc(O)cc2C)C(=O)NCc2ccccc2)[C@@H](O)[C@H](O)[C@H]1O [EU-A620, Dmt-Tic-Phe-Lys(C1-glucuronyl)-NHCH2Ph] (H-[Dmt][Tic]FK(βGlcA(1-OMe))-NHBn) |  | Pure MOP Ag; | pure DOP antag | 480 nM | 
CO[C@@H]1O[C@H](C(=O)NCCCC[C@@H](NC(=O)[C@H](Cc2ccccc2)NC(=O)[C@@H]2Cc3ccccc3CN2C(=O)[C@@H](N)Cc2c(C)cc(O)cc2C)C(=O)NCc2ccccc2)[C@@H](O)[C@H](O)[C@H]1O [EU-A639, Dmt-Tic-Phe-D-Lys(C1-glucuronyl)-NHCH2Ph] (H-[Dmt][Tic]F[dK](βGlcA(1-OMe))-NHBn; N-terminus assumed) |  | Pure MOP Ag; | pure DOP antag | 280 nM | 
CCCCCCCCO[C@@H]1O[C@H](CO)[C@@H](O[C@H]2O[C@H](CO)[C@@H](O)[C@H](O)[C@H]2O)[C@H](O)[C@H]1O [Octyl maltoside] | 19.5 mM |  |  |  | 
Sucrose dodecanoate | 0.3 mM |  |  |  | 
